Experimental data: publication PMC9503459, “Antifungal Activity, Structural Stability, and Immunomodulatory Effects on Human Immune Cells of Defensin from the Lentil Lens culinaris” (Membranes, 2022)
No end group written: not given here.

Key:
CD4+ T-helper cells = assay: Cytokine response by multiplex xMAP, CD4+ T-helper cells; assay type: cell-based, human; conditions: 2 µM, 24 h
Method: Colorectal adenocarcinoma Caco-2 cell line (ATCC HTB-37) was cultured in complete DMEM/F12 (1:1) medium containing 10% fetal bovine serum (FBS, Gibco) and 1X antibiotic-antimycotic solution (1XAAS, Invitrogen, Waltham, MA, USA). The acute monocytic leukemia THP-1 line (ATCC TIB-202) was cultured in complete RPMI-1640 medium, containing 10% FBS, 1XAAS, and […]. THP-1 cells were differentiated into pro-inflammatory macrophages (Mφ1) with phorbol 12-myristate 13-acetate (Sigma-Aldrich) for 24 h and subsequently polarized with lipopolysaccharide from E. coli (Sigma-Aldrich) and rhIFN-γ (Sigma-Aldrich) for another 48 h according to previously reported protocol. All cells were cultured in a humidified CO2 incubator (5% CO2, 37 °C). Primary peripheral blood mononuclear cells (PBMCs) collected from a healthy donor were purchased from American Type Culture Collection (ATCC PCS-800-011). CD4^+ T-helper and CD8^+ T cytotoxic cells were isolated from PBMCs by magnetic separation with mouse anti-human CD4-PE (clone 13B8.2, Beckman Coulter Diagnostics, Pasadena, CA, USA) and CD8-PE (clone REA734, Miltenyi Biotec, Bergisch Gladbach, Germany), Anti-PE MicroBeads (Miltenyi Biotec), and LS Separation Columns (Miltenyi Biotec). Isolated CD4^+ and CD8^+ cells were expanded separately with Dynabeads™ Human T-Expander CD3/CD28 (Gibco, Waltham, MA, USA) in RPMI-1640 supplemented with 10% FBS, 1XAAS and 100 U/mL rh-IL-2 (Gibco). Regulatory CD4^+ FoxP3^+ T cells (Tregs) were isolated from PBMCs by magnetic separation with CD4^+CD25^+ Regulatory T Cell Isolation Kit, human (Miltenyi Biotec). Primary CD14^+ blood monocytes were isolated from PBMCs by adherence according to standard technique. Monocyte-derived mature dendritic cells (moDCs) were obtained from CD14^+ blood monocytes according to the previously reported protocol. Briefly, blood monocytes were incubated in complete RPMI-1640 medium, containing 10% FBS, 1XAAS, 800 U/mL rhGM-CSF (Sci-Store, Russia, Moscow) and 500 U/mL rhIL-4 (Sci-Store) for 3 days. Fresh complete RPMI-1640 medium with rhGM-CSF and rhIL-4 was added to the culture on day 3. On day 5, fresh complete RPMI-1640 containing 100 U/mL rhTNF-α (Sigma) as well as 800 U/mL rhGM-CSF and 500 U/mL rhIL-4 was added and the culture was incubated for another 4 days until full maturation.
Caco-2 cells were seeded into the wells of a 48-well plate, coated with 0.1% bovine collagen (Sigma-Aldrich) for 24 h, 3 weeks before the experiment with complete DMEM/F12 (1:1) medium renewal every 2–3 days. Monocytes, moDCs, CD4^+ T-helper and CD8^+ T cytotoxic cells, Mφ1, and Regulatory CD4^+ FoxP3^+ T cells were seeded into the wells of 48-well plates in the complete RPMI-1640 medium supplemented with 10% Human AB serum (HABS, Capricorn Scientific, Ebsdorfergrund, Germany) and 1XAAS 24 h prior to the experiment; medium in Caco-2-containing wells was also replaced with the same medium. After 24 h, half of the medium in each well was replaced by fresh complete RPMI-1640 medium with 10% HABS, supplemented with 4 µM of Lc-def for the sample wells or fresh medium alone for the control wells. Cell cultures were kept in CO2-incubator (5% CO2, 37 °C) for another 24 h. Culture supernatants were collected 24 h later and stored at −70 °C degrees less than one month prior to the analytes assessment. […]

[1] = tested on: Gram-positive or Gram-negative bacteria; conditions: cited from earlier work

Substance: Lc-def: defensin from lentil Lens culinaris seeds (UniProt:B3F051), recombinant, overexpressed in Escherichia coli (KTCENLSDSFKGPCIPDGNCNKHCKEKEHLLSGRCRDDFRCWCTRNC; disulfide (positions not given here); ends not checked; also: disulfide bonds present, pairing not given here; UniProt B3F051 28-74, looked up)
- EGF (CD4+ T-helper cells): <1.95↓ pg/ml
- Eotaxin (CD4+ T-helper cells): <3.23↓ pg/ml
- FGF-2 (CD4+ T-helper cells): 0 pg/mL
- FLT-3L (CD4+ T-helper cells): <0.45↓ pg/ml
- Fractalkine (CD4+ T-helper cells): <23.19↓ pg/ml
- G-CSF (CD4+ T-helper cells): <2.57↓ pg/ml
- GM-CSF (CD4+ T-helper cells): <1.36↓ pg/ml
- GROa (CD4+ T-helper cells): <0.67↓ pg/ml
- IFNa2 (CD4+ T-helper cells): <4.43↓ pg/ml
- IFNg (CD4+ T-helper cells): <1.99↓ pg/ml
- IL-1RA (CD4+ T-helper cells): <0.83↓ pg/ml
- IL-1a (CD4+ T-helper cells): 8.24 pg/mL
- IL-1b (CD4+ T-helper cells): <18.72↓ pg/ml
- IL-2 (CD4+ T-helper cells): <0.31↓ pg/ml
- IL-3 (CD4+ T-helper cells): <0.48↓ pg/ml
- IL-4 (CD4+ T-helper cells): <0.31↓ pg/ml
- IL-5 (CD4+ T-helper cells): 0.97 pg/mL
- IL-6 (CD4+ T-helper cells): <0.30↓ pg/ml
- IL-7 (CD4+ T-helper cells): <0.33↓ pg/ml
- IL-8 (CD4+ T-helper cells): <0.49↓ pg/ml
- IL-9 (CD4+ T-helper cells): <1.05↓ pg/ml
- IL-10 (CD4+ T-helper cells): <0.68↓ pg/ml
- IL-12 (p40) (CD4+ T-helper cells): <3.02↓ pg/ml
- IL-12 (p70) (CD4+ T-helper cells): <1.48↓ pg/ml
- IL-13 (CD4+ T-helper cells): <5.00↓ pg/ml
- IL-15 (CD4+ T-helper cells): <1.45↓ pg/ml
- IL-17A (CD4+ T-helper cells): <1.55↓ pg/ml
- IL-17E/IL-25 (CD4+ T-helper cells): <20.59↓ pg/ml
- IL-17F (CD4+ T-helper cells): <16.96↓ pg/ml
- IL-18 (CD4+ T-helper cells): <0.35↓ pg/ml
- IL-22 (CD4+ T-helper cells): <8.31↓ pg/ml
- IL-27 (CD4+ T-helper cells): <8.55↓ pg/ml
- IP-10 (CD4+ T-helper cells): <1.56↓ pg/ml
- M-GSF (CD4+ T-helper cells): <23.75↓ pg/ml
- MCP-1 (CD4+ T-helper cells): <1.52↓ pg/ml
- MCP-3 (CD4+ T-helper cells): <3.95↓ pg/ml
- MDC (CD4+ T-helper cells): <0.35↓ pg/ml
- MIG (CD4+ T-helper cells): <3.43↓ pg/ml
- MIP-1a (CD4+ T-helper cells): 7.47 pg/mL
- MIP-1b (CD4+ T-helper cells): 3.99 pg/mL
- PDGF-AA (CD4+ T-helper cells): <7.38↓ pg/ml
- PDGF-AB/BB (CD4+ T-helper cells): <9.75↓ pg/ml
- RANTES (CD4+ T-helper cells): 236.88 pg/mL
- TGF-a (CD4+ T-helper cells): <0.66↓ pg/ml
- TNFa (CD4+ T-helper cells): <3.91↓ pg/ml
- TNFb (CD4+ T-helper cells): <0.73↓ pg/ml
- VEGFa (CD4+ T-helper cells): <1.27↓ pg/ml
- effects on cytokine production (CD4+ T-helper cells): No effects
- sCD40L (CD4+ T-helper cells): <6.66↓ pg/ml
- effect on growth of bacteria [1]: did not affect the growth
